For series [1], the system named is individuals with RA. As to conditions: cited from earlier work.
For series [2] the following is noted: cited from earlier work.
Series [3] concerns RA patients. The series can be described thus: pentostatin monotherapy on a monthly schedule (inventor). The series is classed as in vivo, human. Conditions: treatment continued past the flare. The source says: When the treatment was continued past the flare, approximately a third of the patients entered a pharmaceutical free remission for a period of weeks or months.
Series [4] concerns RA patients. Conditions: bi-weekly pentostatin, months 1 and 3; cited from earlier work.
In series [5] the test system is CLL; hairy cell leukemia. Conditions: cited from earlier work.
Setting [6] is: 4 mg/M^2 once a week x3 or 4 followed by once every three to four weeks.

On to `CN(Cc1cnc2nc(N)nc(N)c2n1)c1ccc(C(=O)N[C@@H](CCC(=O)O)C(=O)O)cc1` [methotrexate, N-[4-[[(2,4-diamino-6-pteridinyl)methyl]methylamino]benzoyl]-L-glutamic acid], for which, in series [1] (in vivo), the “patients remaining on methotrexate for two or more years” value is reported as “Up to 70%” and the “time to worsening of RA after monotherapy is discontinued” value is listed as “three to six”. In addition, the “patients expected to obtain at least partial relief” value in series [1] (methotrexate monotherapy, recent studies) is on record as “about 70%”. Also, in series [1] (methotrexate monotherapy), the “individuals still on the drug five years after starting” value is reported as “over 50%”, the “individuals with RA getting some favorable response” value is on record as “Approximately 70%” and the “patients entering remission as defined by ACR criteria” value was “less than 30%”. In series [2] (intramuscular administration), the “time of peak serum concentrations” value is recorded as “thirty to sixty”. The absorption entry in series [2] (parenteral administration) is on record as “generally complete absorption”.
With `OC[C@H]1O[C@@H](n2cnc3c2NC=NC[C@H]3O)C[C@@H]1O` [pentostatin, 2′-deoxycoformycin], the “patients entering a pharmaceutical free remission for weeks or months” value in series [3] is reported as “approximately a third”. Besides, in series [4], the “patients with significant flare (duration of morning stiffness, tender and swollen joints)” value is 9 of 11. In series [5] (setting [6]), the “efficacy in hairy cell leukemia” value is “effective in inducing remission in hairy cell leukemia” and the “toxicity at even lower doses” value was “no toxicity”. In addition, in series [5] (5 mg/M^2 on two successive days), the “toxicity at lower doses” value was “mild with transient leukopenia, nausea and lethargy or somnolence”. In addition, the “clinical response in CLL” value in series [5] (doses of 1.0 to 13.5 mg/kg) is on record as “cytoreduction but no clinically meaningful remission in CLL”. Further, in series [5] (very high doses), the “toxicity at very high doses” value was “substantial and may include renal failure secondary to acute tubular necrosis, central nervous system toxicity (seizures), pulmonary edema, and keratoconjunctivitis”.

Values taken from patent US6362176B1, “Compositions, methods and kits for treating rheumatoid arthritis” (Super Gen, Inc., priority 1998, dated 2002).
